Molecules are shown by their SMILES.

Results on 1 compound are retold here after patent US20190038650A1, “COMPOSITIONS AND METHODS FOR THE TREATMENT OF ATHEROSCLEROSIS AND HEPATOSTEATOSIS AND OTHER DISEASES” (priority 2016, published 2019).

Data set [1] is described as follows: Trehalose tolerance test, serum trehalose in trehalase knockout mice. Type of data set: in vivo. Conditions: trehalose IP 1 g/kg, trehalase knockout mice versus control mice. The method, then: To determine if inhibition of trehalase could enhance the efficacy of trehalose, a trehalase knockout mouse was generated. Control mice and trehalase knockout mice were then administered trehalose IP at 1 g/kg. Of 12 chimeric founders, a trehalose tolerance test was performed on n=3 non-targeted controls and n=5 chimeric mice. […] The serum concentration of trehalose at 30 minutes post-administration was measured.

For data set [2] the following is noted: orally and intravenously, doses substantially higher than the intended therapeutic dose; cited from earlier work.
In a further data set the test system is ApoE deficient mice. Put plainly: Atherosclerotic lesion size in ApoE deficient mice fed a Western diet. Conditions: trehalose oral and IP, 2 months post-treatment, relative to vehicle. Type of data set: in vivo. The procedure:
ApoE deficient mice were fed a Western diet with and without treatment with trehalose. Trehalose was administered oral and IP. At 2 months post-treatment the presence of atherosclerosis was evaluated.

Data set [3] relates to Mice fed a Western diet. Put plainly: Insulin tolerance test. The class given is in vivo. The settings on record: compared to saline and sucrose, FIG. 3. The method, then: Additionally, an insulin tolerance test was performed in the presence of saline, sucrose or trehalose.
The conditions of data set [4]: cited from earlier work.
The test system of data set [5] is Mice fed a Western diet. As to the kind of experiment: Steatosis / body composition in mice fed a Western diet. The class given is in vivo. The procedure:
Mice were fed a Western diet in combination with saline, sucrose or trehalose. The saline, sucrose or trehalose was administered orally and IP. Oral administration was provided in the cage water supply at 2% w/v in water (w/v=weight/volume). Additionally, 2 grams trehlose/kg mouse weight was injected IP. IP injection was 3 times/week. […] It was then determined if this significant reduction in body mass was due to fat mass or lean mass. […] (FIG. 2B). It was then determined the location of the increase in fat mass via tissue weights. […] Finally, the amount of liver triglycerides was measured in each group.

For data set [6] the following is noted: oral; cited from earlier work.

Regarding `OC[C@H]1O[C@H](O[C@H]2O[C@H](CO)[C@@H](O)[C@H](O)[C@H]2O)[C@H](O)[C@@H](O)[C@@H]1O` [trehalose], in data set [1], the “serum concentration of trehalose at 30 minutes post-administration” value is “significantly higher serum levels of trehalose”. The safety and toxicity result in data set [2] was “found to be safe”. Moreover, the atherosclerotic lesion size entry in the data set on ApoE deficient mice is recorded as “significantly reduced atherosclerotic lesion size”. Moreover, the “insulin resistance (insulin tolerance test)” value in the data set with Mice fed a Western diet [3] is given as “less insulin resistance was observed”. Moreover, in data set [4], the “oral amount that may cause diarrhea and bloating” value is on record as 40-50 gram per day. Also, the “oral amount that frequently causes diarrhea, bloating and discomfort” value in data set [4] (humans) is on record as “higher than 50 g a day”. Also, the lean mass entry in the data set on Mice fed a Western diet [5] (FIG. 2B) is recorded as “not lean mass”. In addition, in the data set on Mice fed a Western diet [5] (FIG. 2D), the liver triglycerides result is on record as “significant reduction in liver triglycerides”. Also, the body mass result with Mice fed a Western diet [5] (Western diet, oral 2% w/v in water plus 2 g/kg IP 3 times/week, at 13-16 weeks) is listed as “significantly decreased body mass”. In addition, the fat mass result in the data set with Mice fed a Western diet [5] (at 16 weeks, relative to saline or sucrose) is “significant reduction in fat mass”. In addition, in the data set with Mice fed a Western diet [5] (tissue weights, FIG. 2C), the “subcutaneous (subQ) fat mass” value is on record as “reduction of fat mass in the subcutaneous (subQ) fat” and the “tissue mass in the liver” value is “significant reduction in tissue mass in the liver”. In data set [6], the “ingested trehalose absorbed into the blood stream” value is reported as “Less than 0.5%” and the “trehalose not absorbed into the blood stream” value was “Over 99.5%”.
